From US20050112573A1, “Method of detecting toxic substance” (priority 2001, published 2005)

Test system: yeast genes (level of expressed mRNA)
Experiment: DNA chip analysis of expressed mRNA of yeast genes after 2 h culture with a toxic chemical substance
Assay type: cell-based, Saccharomyces cerevisiae S288C
In short: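 S. cerevisiae S288C grown at 25° C in YPD; toxicant added at log phase at growth-inhibitory, non-lethal levels for 2 h, untreated cells as control. Poly(A) mRNA reverse-transcribed with Cy3/Cy5-dUTP, hybridized to whole-genome chip at 65° C >12 h; value is fluorescence ratio versus untreated.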

CCCCC[C@H](O)CC(=O)CCc1ccc(O)c(OC)c1 [(13), gingerol]
level of expressed mRNA in the presence of chemical substance/in its absence (gene YAL012W): 1.1 | The level of expressed mRNA in the presence of chemical substance/absence: YAL014C (gene YAL014C): 1.5 | The level of expressed mRNA in the presence of chemical substance/absence: YAL017W (gene YAL017W): 2.2 | The level of expressed mRNA in the presence of chemical substance/absence: YAL018C (gene YAL018C): 1.3 | level of expressed mRNA in the presence of chemical substance/in its absence (gene YAL038W): 1.8 | level of expressed mRNA in the presence of chemical substance/in its absence (gene YAL044C): 1.1 | The level of expressed mRNA in the presence of chemical substance/absence: YAL049C (gene YAL049C): 1.6 | level of expressed mRNA in the presence of chemical substance/in its absence (gene YAL054C): 1.8 | The level of expressed mRNA in the presence of chemical substance/absence: YAR047C (gene YAR047C): 1.4 | The level of expressed mRNA in the presence of chemical substance/absence: YAR064W (gene YAR064W): 1.1 | level of expressed mRNA in the presence of chemical substance/in its absence (gene YAR071W): 0.3 | level of expressed mRNA in the presence of chemical substance/in its absence (gene YBL001C): 1.0 | The level of expressed mRNA in the presence of chemical substance/absence: YBL044W (gene YBL044W): 0.7 | The level of expressed mRNA in the presence of chemical substance/absence: YBL100C (gene YBL100C): 0.9 | The level of expressed mRNA in the presence of chemical substance/absence: YBR012C (gene YBR012C): 2.1 | The level of expressed mRNA in the presence of chemical substance/absence: YBR013C (gene YBR013C): 2.0 | level of expressed mRNA in the presence of chemical substance/in its absence (gene YBR014C): 0.9 | level of expressed mRNA in the presence of chemical substance/in its absence (gene YBR023C): 0.5 | level of expressed mRNA in the presence of chemical substance/in its absence (gene YBR029C): 1.7 | level of expressed mRNA in the presence of chemical substance/in its absence (gene YBR035C): 1.8 | level of expressed mRNA in the presence of chemical substance/in its absence (gene YBR050C): 1.3 | The level of expressed mRNA in the presence of chemical substance/absence: YBR051W (gene YBR051W): 1.2 | The level of expressed mRNA in the presence of chemical substance/absence: YBR063C (gene YBR063C): 1.7 | The level of expressed mRNA in the presence of chemical substance/absence: YBR066C (gene YBR066C): 0.6 | level of expressed mRNA in the presence of chemical substance/in its absence (gene YBR068C): 2.2 | level of expressed mRNA in the presence of chemical substance/in its absence (gene YBR111C): 1.6 | The level of expressed mRNA in the presence of chemical substance/absence: YBR124W (gene YBR124W): 0.9 | level of expressed mRNA in the presence of chemical substance/in its absence (gene YBR126C): 2.1 | The level of expressed mRNA in the presence of chemical substance/absence: YBR129C (gene YBR129C): 1.3 | level of expressed mRNA in the presence of chemical substance/in its absence (gene YBR145W): 2.0 | The level of expressed mRNA in the presence of chemical substance/absence: YBR162C (gene YBR162C): 0.7 | level of expressed mRNA in the presence of chemical substance/in its absence (gene YBR183W): 1.4 | level of expressed mRNA in the presence of chemical substance/in its absence (gene YBR222C): 1.6 | The level of expressed mRNA in the presence of chemical substance/absence: YBR255W (gene YBR255W): 1.4 | The level of expressed mRNA in the presence of chemical substance/absence: YBR281C (gene YBR281C): 1.2 | The level of expressed mRNA in the presence of chemical substance/absence: YBR287W (gene YBR287W): 3.4 | level of expressed mRNA in the presence of chemical substance/in its absence (gene YBR299W): 0.7 | level of expressed mRNA in the presence of chemical substance/in its absence (gene YCL009C): 1.6 | The level of expressed mRNA in the presence of chemical substance/absence: YCL042W (gene YCL042W): 7.5 | The level of expressed mRNA in the presence of chemical substance/absence: YCL044C (gene YCL044C): 1.7 | The level of expressed mRNA in the presence of chemical substance/absence: YCL056C (gene YCL056C): 1.3 | level of expressed mRNA in the presence of chemical substance/in its absence (gene YCL064C): 1.6 | The level of expressed mRNA in the presence of chemical substance/absence: YCR007C (gene YCR007C): 1.5 | level of expressed mRNA in the presence of chemical substance/in its absence (gene YCR037C): 1.3 | level of expressed mRNA in the presence of chemical substance/in its absence (gene YCR048W): 1.3 | level of expressed mRNA in the presence of chemical substance/in its absence (gene YCR098C): 1.4 | level of expressed mRNA in the presence of chemical substance/in its absence (gene YDL022W): 1.5 | The level of expressed mRNA in the presence of chemical substance/absence: YDL046W (gene YDL046W): 1.5 | The level of expressed mRNA in the presence of chemical substance/absence: YDL089W (gene YDL089W): 1.9 | The level of expressed mRNA in the presence of chemical substance/absence: YDL173W (gene YDL173W): 1.7 | The level of expressed mRNA in the presence of chemical substance/absence: YDL193W (gene YDL193W): 1.4 | The level of expressed mRNA in the presence of chemical substance/absence: YDL233W (gene YDL233W): 1.8 | level of expressed mRNA in the presence of chemical substance/in its absence (gene YDR009W): 1.2 | level of expressed mRNA in the presence of chemical substance/in its absence (gene YDR019C): 1.0 | The level of expressed mRNA in the presence of chemical substance/absence: YDR071C (gene YDR071C): 1.3 | The level of expressed mRNA in the presence of chemical substance/absence: YDR078C (gene YDR078C): 1.1 | The level of expressed mRNA in the presence of chemical substance/absence: YDR090C (gene YDR090C): 0.8 | The level of expressed mRNA in the presence of chemical substance/absence: YDR109C (gene YDR109C): 1.4 | The level of expressed mRNA in the presence of chemical substance/absence: YDR128W (gene YDR128W): 1.1 | The level of expressed mRNA in the presence of chemical substance/absence: YDR133C (gene YDR133C): 0.1 | The level of expressed mRNA in the presence of chemical substance/absence: YDR140W (gene YDR140W): 2.0 | The level of expressed mRNA in the presence of chemical substance/absence: YDR221W (gene YDR221W): 1.0 | The level of expressed mRNA in the presence of chemical substance/absence: YDR250C (gene YDR250C): 1.2 | The level of expressed mRNA in the presence of chemical substance/absence: YDR271C (gene YDR271C): 1.5 | The level of expressed mRNA in the presence of chemical substance/absence: YDR278C (gene YDR278C): 0.7 | The level of expressed mRNA in the presence of chemical substance/absence: YDR281C (gene YDR281C): 0.7 | The level of expressed mRNA in the presence of chemical substance/absence: YDR316W (gene YDR316W): 0.6 | The level of expressed mRNA in the presence of chemical substance/absence: YDR338C (gene YDR338C): 1.3 | The level of expressed mRNA in the presence of chemical substance/absence: YDR366C (gene YDR366C): 0.8 | level of expressed mRNA in the presence of chemical substance/in its absence (gene YDR380W): 0.4 | level of expressed mRNA in the presence of chemical substance/in its absence (gene YDR410C): 1.2 | The level of expressed mRNA in the presence of chemical substance/absence: YDR421W (gene YDR421W): 0.6 | The level of expressed mRNA in the presence of chemical substance/absence: YDR425W (gene YDR425W): 1.4 | The level of expressed mRNA in the presence of chemical substance/absence: YDR485C (gene YDR485C): 1.2 | level of expressed mRNA in the presence of chemical substance/in its absence (gene YDR487C): 1.5 | level of expressed mRNA in the presence of chemical substance/in its absence (gene YDR502C): 1.2 | The level of expressed mRNA in the presence of chemical substance/absence: YDR504C (gene YDR504C): 2.2 | level of expressed mRNA in the presence of chemical substance/in its absence (gene YEL011W): 1.5 | level of expressed mRNA in the presence of chemical substance/in its absence (gene YEL020C): 1.2 | The level of expressed mRNA in the presence of chemical substance/absence: YEL044W (gene YEL044W): 1.3 | level of expressed mRNA in the presence of chemical substance/in its absence (gene YER026C): 1.9 | level of expressed mRNA in the presence of chemical substance/in its absence (gene YER069W): 1.4 | The level of expressed mRNA in the presence of chemical substance/absence: YER092W (gene YER092W): 1.2 | The level of expressed mRNA in the presence of chemical substance/absence: YER182W (gene YER182W): 0.9 | The level of expressed mRNA in the presence of chemical substance/absence: YFL042C (gene YFL042C): 1.7 | level of expressed mRNA in the presence of chemical substance/in its absence (gene YFR015C): 2.5 | The level of expressed mRNA in the presence of chemical substance/absence: YFR026C (gene YFR026C): 1.1 | The level of expressed mRNA in the presence of chemical substance/absence: YFR056C (gene YFR056C): 0.3 | level of expressed mRNA in the presence of chemical substance/in its absence (gene YGL001C): 1.0 | level of expressed mRNA in the presence of chemical substance/in its absence (gene YGL022W): 1.0 | level of expressed mRNA in the presence of chemical substance/in its absence (gene YGL039W): 1.5 | The level of expressed mRNA in the presence of chemical substance/absence: YGL041C (gene YGL041C): 1.0 | The level of expressed mRNA in the presence of chemical substance/absence: YGL045W (gene YGL045W): 1.3 | The level of expressed mRNA in the presence of chemical substance/absence: YGL057C (gene YGL057C): 1.3 | The level of expressed mRNA in the presence of chemical substance/absence: YGL088W (gene YGL088W): 0.7 | level of expressed mRNA in the presence of chemical substance/in its absence (gene YGL104C): 2.0 | level of expressed mRNA in the presence of chemical substance/in its absence (gene YGL134W): 0.7 | level of expressed mRNA in the presence of chemical substance/in its absence (gene YGL154C): 2.0 | The level of expressed mRNA in the presence of chemical substance/absence: YGL183C (gene YGL183C): 1.5 | level of expressed mRNA in the presence of chemical substance/in its absence (gene YGL209W): 1.9 | The level of expressed mRNA in the presence of chemical substance/absence: YGL223C (gene YGL223C): 1.7 | level of expressed mRNA in the presence of chemical substance/in its absence (gene YGL253W): 1.5 | The level of expressed mRNA in the presence of chemical substance/absence: YGR038W (gene YGR038W): 1.2 | level of expressed mRNA in the presence of chemical substance/in its absence (gene YGR060W): 0.6 | The level of expressed mRNA in the presence of chemical substance/absence: YGR139W (gene YGR139W): 0.4 | The level of expressed mRNA in the presence of chemical substance/absence: YGR156W (gene YGR156W): 1.8 | The level of expressed mRNA in the presence of chemical substance/absence: YGR198W (gene YGR198W): 1.3 | The level of expressed mRNA in the presence of chemical substance/absence: YGR210C (gene YGR210C): 1.0 | The level of expressed mRNA in the presence of chemical substance/absence: YGR211W (gene YGR211W): 0.8 | The level of expressed mRNA in the presence of chemical substance/absence: YGR237C (gene YGR237C): 1.6 | The level of expressed mRNA in the presence of chemical substance/absence: YGR243W (gene YGR243W): 1.1 | The level of expressed mRNA in the presence of chemical substance/absence: YGR250C (gene YGR250C): 1.7 | The level of expressed mRNA in the presence of chemical substance/absence: YGR266W (gene YGR266W): 1.1 | The level of expressed mRNA in the presence of chemical substance/absence: YGR277C (gene YGR277C): 1.6
